Reference: patent EP0461815A1, “Anti-HBV pyrimidine nucleoside” (THE WELLCOME FOUNDATION LIMITED, priority 1990, dated 1991)
Like-named read-outs stand apart in the source and are kept apart here.

Assays:
Hepatitis B Virus (HBV) = experiment: Anti-HBV activity in HBV producer cell line HepG2 2.2.15: reduction of extracellular virion DNA and intracellular replicative intermediates; format: cell-based
Procedure: The human HBV producer cell line of HepG2, 2.2.15, described and characterized by Sells et al., PNAS 84:1005, 1987 and J. Virol. […] This cell line was utilized in vitro to identify compounds with anti-HBV activity.
Monolayer cultures were treated with 1-100µM of the active compound 1-(β-D-arabinofuranosyl)-5-prop-1-ynyluracil, for ten days. Supernatant media containing extracellular virion DNA (Dane particles) were harvested on day ten, treated with proteinase K (1 mg/mL) and sodium dodecyl sulfate (1%), and incubated at 50°C for one hour. DNA was extracted with equal volumes of phenol followed by chloroform and then precipitated by ammonium acetate and propanol. The DNA precipitate was dissolved and collected on nitrocellulose using the procedure of Schleicher and Schuell (S & S, 10 Optical Ave., Keene, NH 03431, Publication #700, 1987), and treated as described by Southern, J. Mol. Biol. 98:503, 1975. Cells were harvested, and the intracellular DNA. was obtained after cell lysis with guanidine isothiocyanate. The intracellular DNA was handled in the same manner as the extracellular DNA. After precipitation by ammonium acetate and propanol, the intracellular DNA precipitate was dissolved, cut by restriction endonuclease, Hind III, applied to agarose gel and then treated as described by Southern to determine the quantity of replicative intermediate forms. The antiviral effect of the drug was determined by measuring a reduction of the amount of Dane particles extruded into the culture medium (extracellular DNA) and a similar decrease in tie intracellular replicative intermediates (intracellular replicative form).

[1] = Cell toxicity, cell growth inhibition assay (MTT uptake); format: cell-based; settings: monkey, Vero cells, 50% inhibition of cell viability at 96 hours, read-out: cell toxicity (CCID₅₀)
Procedure: Cell toxicity is assessed in a cell growth inhibition assay. Subconfluent cultures of Vero cells grown on 96-well microtiter dishes are exposed to different dilutions of drug, and cell viability determined daily on replicate cultures using uptake of a tetrazolium dye (MTT). The concentration requried for a 50% inhibition of cell viability at 96 hours is termed CCID₅₀.

[2] = HepG2 2.2.15, 240 h, Expt. 5, HepG2 2.2.15 cells, ten days, read-out: Percent (Reduction) Inhibition of Hepatitus B Virus DNA in Extracellular Media
[3] = HepG2 2.2.15, 240 h, Expt. 6, HepG2 2.2.15 cells, ten days, read-out: Percent (Reduction) Inhibition of Hepatitus B Virus DNA in Extracellular Media

## CC#Cc1cn([C@@H]2O[C@H](CO)[C@@H](O)[C@@H]2O)c(=O)[nH]c1=O [1-(β-D-Arabinofuranosyl)-5-prop-1-ynyluracil]
Hepatitis B Virus (HBV); Expt. 5, 11μM, HepG2 2.2.15 cells, ten days
  Percent (Reduction) Inhibition of Hepatitus B Virus DNA in Extracellular Media: N.I.
Hepatitis B Virus (HBV); Expt. 6, 37μM, HepG2 2.2.15 cells, ten days
  Percent (Reduction) Inhibition of Hepatitus B Virus DNA in Extracellular Media: N.I.
Hepatitis B Virus (HBV); [2]
  inhibition at 33 µM: 87.4%
  inhibition at 100 µM: 94.4%
Hepatitis B Virus (HBV); HepG2 2.2.15, 240 h, Expt. 5, 37μM, HepG2 2.2.15 cells, ten days, read-out: Percent (Reduction) Inhibition of Hepatitus B Virus DNA in Extracellular Media
  inhibition at 37 µM: 55.3%
Hepatitis B Virus (HBV); HepG2 2.2.15, 240 h, Expt. 6, 11μM, HepG2 2.2.15 cells, ten days, read-out: Percent (Reduction) Inhibition of Hepatitus B Virus DNA in Extracellular Media
  inhibition at 11 µM: 71.5%
Hepatitis B Virus (HBV); [3]
  inhibition at 33 µM: 89.1%
  inhibition at 100 µM: 98.5%
Hepatitis B Virus (HBV); Hepatitis B virus, HepG2 2.2.15, 240 h, Expt. 5, value in parentheses, read-out: % reduction in intracellular hepatitis B virus DNA replicative form
  inhibition at 100 µM: 88%
Hepatitis B Virus (HBV); Hepatitis B virus, HepG2 2.2.15, 240 h, Expt. 6, value in parentheses, read-out: % reduction in intracellular hepatitis B virus DNA replicative form
  inhibition at 100 µM: 95.3%
Hepatitis B Virus (HBV); Hepatitis B virus, HepG2 2.2.15, Expt.7, 1μM, read-out: Percent Inhibition of Hepatitis B Specific Intracellular Replicative Form (RF) DNA
  inhibition at 1 µM: 35%
Hepatitis B Virus (HBV); Hepatitis B virus, HepG2 2.2.15, Expt.7, 10μM, read-out: Percent Inhibition of Hepatitis B Specific Intracellular Replicative Form (RF) DNA
  inhibition at 10 µM: 33%
Hepatitis B Virus (HBV); Hepatitis B virus, HepG2 2.2.15, Expt.7, read-out: Percent Inhibition of Hepatitis B Specific Intracellular Replicative Form (RF) DNA
  inhibition at 100 µM: 42%
[1]
  CC50 at 96 h: > 500 µM
